From patent publication US8933233B2, “1,3,4-oxadiazole and 1,3,4-thiadiazole β-lactamase inhibitors” (priority 2012, dated 2015)
Structures can show the parent of a compound that is named as a salt.

Key:
[1] = test system: bacterial strains that express KPC β-lactamases; test: Synergy MIC / standard BLI potentiation MIC assay, strains expressing KPC β-lactamases; format: cell-based, isogenic E. coli and clinical isolates; details: more active for at least one KPC strain and/or better spectrum; comparator Avibactam
Experimental: (§1) Unless otherwise indicated, the activity of the BLI compounds can be described by the MIC value obtained from a Synergy MIC assay or a BLI potentiation assay (e.g as described herein), both of which are run in the presence of a β-lactam.
(§2) The experimental protocol was performed according to Clinical and Laboratory Standards Institute (CLSI) guidelines with modifications as described below (CLSI guidelines can be derived from the CLSI document M07-A9 published in January 2012: “Methods for Dilution Antimicrobial Susceptibility Tests for Bacteria That Grow Aerobically; Approved Standard-Ninth Edition”).
(§3) To prepare for MIC testing, frozen glycerol stocks of clinical isolates (Klebsiella pneumoniae, Eschericia coli, Enterobacter spp, Citrobacter spp, or Pseudomonas aeruginosa) were used to streak for isolated colonies on rich, non-selective, tryptic soy agar containing 5% sheep's blood (TSAB). Frozen glycerol stocks of laboratory engineered, isogenic E. coli strains, which contain cloned β-lactamase expressing plasmids were used to streak for isolated colonies on rich, selective LB agar supplemented with 25 μg/mL tetracycline to maintain the plasmid. All strains were incubated at 37° C. for 18-24 hrs.
(§4) On the day of testing, primary cultures were started by scraping off 5-10 colonies from the TSAB plates containing clinical strains or the tetracycline supplemented LB plates containing engineered strains. The clinical strain material was suspended in ˜5 mL of cation adjusted Mueller Hinton Broth (CAMHB) in 14 mL culture tubes. The engineered strain material was suspended in CAMHB (supplemented with 25 μg/mL tetracycline) in 14 mL culture tubes. All strains were incubated at 37° C. with aeration (200 rpm) for ˜2 hrs until the optical density at 600 nm (OD600) was ≧0.1.
(§5) The two compound components of the assay were each diluted in CAMHB and added to the 96-well broth microdilution assay plates. 50 μL of the β-lactam was added to each well of the assay plate in 2-fold dilutions with final concentrations ranging from 128 to 0.13 μg/mL. 25 μL of the BLI compound was added to all wells in the broth microdilution plates at a final concentration of 4 μg/mL. Inoculum cultures were prepared by standardizing the primary cultures to OD600=0.1 and then adding 20 μL of the adjusted primary culture per 1 mL CAMHB for clinical strains or CAMHB (supplemented with tetracycline at 100 μg/mL) for engineered strains, so that the final inoculum density was ˜10^5 colony forming units per milliliter. Diluted inoculum cultures were used to inoculate 25 μL per well in 96-well broth microdilution assay plates. The final volume of each well was 100 μL and contained a β-lactam at different concentrations, a BLIcompound at 4 μg/mL concentration, the bacterial culture at an OD600 of approximately 0.001 and when necessary tetracycline at 25 μg/mL.
(§6) Plates were incubated for 18-20 hours at 37° C. with aeration (200 rpm). Following incubation, growth was confirmed visually placing plates over a viewing apparatus (stand with a mirror underneath) and then OD600 was measured using a SpectraMax 340PC384 plate reader (Molecular Devices, Sunnyvale, Calif.). Growth was defined as turbidity that could be detected with the naked eye or achieving minimum OD600 of 0.1. MIC values were defined as the lowest concentration producing no visible turbidity.
(§7) The synergy MIC (sMIC) assay determines the concentration of the BLI required to potentiate the activity of a fixed concentration of a β-lactam antibiotic against β-lactamase producing bacterial strains. The experimental protocol was performed according to Clinical and Laboratory Standards Institute (CLSI) guidelines with modifications as described below (CLSI guidelines can be derived from the CLSI document M07-A9 published in January 2012: “Methods for Dilution Antimicrobial Susceptibility Tests for Bacteria That Grow Aerobically; Approved Standard-Ninth Edition”). […]

[2] = test system: bacterial strains that express the class D cephalosporinase OXA-15; test: Synergy MIC / standard BLI potentiation MIC assay, strains expressing OXA-15; format: cell-based, E. coli; details: in presence of a β-lactam; comparator Avibactam (CCC)
Experimental: as §1, §2, §3, §4, §5, §6, §7

| Compound | activity and/or spectrum of activity against bacterial strains that express KPC β-lactamases, compared with Avibactam [1] | activity against bacterial strains that express OXA-15, compared with Avibactam [2] |
| --- | --- | --- |
| NC1CCN(Cc2nnc([C@@H]3CC[C@@H]4CN3C(=O)N4OS(=O)(=O)O)o2)CC1 [Compound 774, (2S,5R)-2-(5-((4-aminopiperidin-1-yl)methyl)-1,3,4-oxadiazol-2-yl)-7-oxo-1,6-diazabicyclo[3.2.1]octan-6-yl hydrogen sulfate] | more active than Avibactam | more active than Avibactam |
| O=C1N2C[C@@H](CC[C@H]2c2nnc(CCCNC3CCNCC3)o2)N1OS(=O)(=O)O [Compound 771, (2S,5R)-7-oxo-2-(5-(3-(piperidin-4-ylamino)propyl)-1,3,4-oxadiazol-2-yl)-1,6-diazabicyclo[3.2.1]octan-6-yl hydrogen sulfate] | more active than Avibactam | more active than Avibactam |
| O=C1N2C[C@@H](CC[C@H]2c2nnc([C@H]3[C@@H]4CNC[C@@H]43)o2)N1OS(=O)(=O)O [Compound 740, (2S,5R)-2-(5-(3-azabicyclo[3.1.0]hexan-6-yl)-1,3,4-oxadiazol-2-yl)-7-oxo-1,6-diazabicyclo[3.2.1]octan-6-yl hydrogen sulfate] | more active than Avibactam | more active than Avibactam |
| N[C@H]1C[C@@H](CCc2nnc([C@@H]3CC[C@@H]4CN3C(=O)N4OS(=O)(=O)O)o2)C1 [Compound 754, (2S,5R)-2-(5-(2-((1s,3S)-3-aminocyclobutyl)ethyl)-1,3,4-oxadiazol-2-yl)-7-oxo-1,6-diazabicyclo[3.2.1]octan-6-yl hydrogen sulfate] | more active than Avibactam | more active than Avibactam |
| O=C1N2C[C@@H](CC[C@H]2c2nnc([C@H]3CCNC3)o2)N1OS(=O)(=O)O [Compound 758, (2S,5R)-7-oxo-2-(5-((S)-pyrrolidin-3-yl)-1,3,4-oxadiazol-2-yl)-1,6-diazabicyclo[3.2.1]octan-6-yl hydrogen sulfate] | more active than Avibactam | more active than Avibactam |
| N=C(N)NCCc1nnc([C@@H]2CC[C@@H]3CN2C(=O)N3OS(=O)(=O)O)o1 [Compound 705, (2S,5R)-2-(5-(2-guanidinoethyl)-1,3,4-oxadiazol-2-yl)-7-oxo-1,6-diazabicyclo[3.2.1]octan-6-yl hydrogen sulfate] | more active than Avibactam | more active than Avibactam |
| N[C@H]1C[C@H](c2nnc([C@@H]3CC[C@@H]4CN3C(=O)N4OS(=O)(=O)O)o2)C1 [Compound 727, (2S,5R)-2-(5-((1r,3S)-3-aminocyclobutyl)-1,3,4-oxadiazol-2-yl)-7-oxo-1,6-diazabicyclo[3.2.1]octan-6-yl hydrogen sulfate] | more active than Avibactam | more active than Avibactam |
| O=C1N2C[C@@H](CC[C@H]2c2nnc(CC3CCNC3)o2)N1OS(=O)(=O)O (stereo partly drawn) [Compound 764, (2S,5R)-7-oxo-2-(5-(pyrrolidin-3-ylmethyl)-1,3,4-oxadiazol-2-yl)-1,6-diazabicyclo[3.2.1]octan-6-yl hydrogen sulfate] | more active than Avibactam | more active than Avibactam |
| O=C1N2C[C@@H](CC[C@H]2c2nnc(CCNCCO)o2)N1OS(=O)(=O)O [Compound 736, (2S,5R)-2-(5-(2-((2-hydroxyethyl)amino)ethyl)-1,3,4-oxadiazol-2-yl)-7-oxo-1,6-diazabicyclo[3.2.1]octan-6-yl hydrogen sulfate] | more active than Avibactam | more active than Avibactam |
| O=C1N2C[C@@H](CC[C@H]2c2nnc(CCNC3CCNCC3)o2)N1OS(=O)(=O)O [Compound 770, (2S,5R)-7-oxo-2-(5-(2-(piperidin-4-ylamino)ethyl)-1,3,4-oxadiazol-2-yl)-1,6-diazabicyclo[3.2.1]octan-6-yl hydrogen sulfate] | more active than Avibactam | more active than Avibactam |
| N[C@H]1C[C@@H](NCc2nnc([C@@H]3CC[C@@H]4CN3C(=O)N4OS(=O)(=O)O)o2)C1 [Compound 756, (2S,5R)-2-(5-((((1s,3R)-3-aminocyclobutyl)amino)methyl)-1,3,4-oxadiazol-2-yl)-7-oxo-1,6-diazabicyclo[3.2.1]octan-6-yl hydrogen sulfate] | more active than Avibactam | more active than Avibactam |
| O=C1N2C[C@@H](CC[C@H]2c2nnc(CCCCNC3CCNCC3)o2)N1OS(=O)(=O)O [Compound 772, (2S,5R)-7-oxo-2-(5-(4-(piperidin-4-ylamino)butyl)-1,3,4-oxadiazol-2-yl)-1,6-diazabicyclo[3.2.1]octan-6-yl hydrogen sulfate] | more active than Avibactam | more active than Avibactam |
| N=C(N)NCCc1nnc([C@@H]2CC[C@@H]3CN2C(=O)N3OS(=O)(=O)O)s1 [Compound 794, (2S,5R)-2-(5-(2-guanidinoethyl)-1,3,4-thiadiazol-2-yl)-7-oxo-1,6-diazabicyclo[3.2.1]octan-6-yl hydrogen sulfate] | more active than Avibactam | more active than Avibactam |
| O=C1N2C[C@@H](CC[C@H]2c2nnc(CCC3CNC3)o2)N1OS(=O)(=O)O [Compound 742, (2S,5R)-2-(5-(2-(azetidin-3-yl)ethyl)-1,3,4-oxadiazol-2-yl)-7-oxo-1,6-diazabicyclo[3.2.1]octan-6-yl hydrogen sulfate] | more active than Avibactam | more active than Avibactam |
| N=C(N)NCc1nnc([C@@H]2CC[C@@H]3CN2C(=O)N3OS(=O)(=O)O)s1 [Compound 721, (2S,5R)-2-(5-(guanidinomethyl)-1,3,4-thiadiazol-2-yl)-7-oxo-1,6-diazabicyclo[3.2.1]octan-6-yl hydrogen sulfate] | more active than Avibactam | more active than Avibactam |
| N[C@H]1C[C@@H](c2nnc([C@@H]3CC[C@@H]4CN3C(=O)N4OS(=O)(=O)O)s2)C1 [Compound 795, (2S,5R)-2-(5-((1s,3R)-3-aminocyclobutyl)-1,3,4-thiadiazol-2-yl)-7-oxo-1,6-diazabicyclo[3.2.1]octan-6-yl hydrogen sulfate] | more active than Avibactam | more active than Avibactam |
